In one series the test system is HSC-2 cells. As to the kind of experiment: JC-1 analysis of mitochondrial membrane potential. Particulars: for cell population with mitochondrial transmembrane potential loss: 0.1 µM, untreated control about 8% at 8 h. Format: cell-based, human. As to the method:
The mitochondrial membrane potential was measured based on the potential–dependent accumulation of the cationic JC-1 dye which results in a shift of fluorescence emission from green (∼525 nm) to red (∼590 nm) due to the formation of J-aggregates. Therefore, mitochondrial depolarization is indicated by a decrease in the red/green fluorescence intensity ratio. Briefly, cells were collected and suspended in 1 ml warm media at approximately 1×10^6 cell/ml. In a control tube, 1 µl of 50 mM CCCP was added and incubated at 37°C for 5 min. Then, 10 µl of 200 µM JC-1 was added into the cells and incubated at 37°C for 30 min. Cells were washed twice with warm PBS, resuspended in 500 µl of PBS and analyzed on a FACSCalibur flow cytometer using 488 nm excitation with 530/30 nm and 585/42 nm bandpass emission filters.
Meanwhile, the mitochondrial transmembrane potential loss was more prominent in HSC-2 cells treated with 5 at 0.1 µM. Approximately 21% (P<0.05) of the cell population was affected in the first hour and the percentage increased drastically to 34% in 8 h. For the untreated control cells, the population of depolarized cells at 8 h remained at approximately 8%. […] CCCP is an oxidative phosphorylation decoupling agent which acts as a positive control for the experiment.

The subject of the next series is HCT-116 colon carcinoma. Briefly: MTT cell viability assay, 48 h. It is filed as cell-based. As to conditions: Homo sapiens, 48 h post-treatment, mean ± SD. As to the method: (§1) MCF-7 breast carcinoma and HCT-116 colon carcinoma cell lines were obtained from American Tissue Culture Collection (Virginia, USA) and maintained in RPMI 1640 medium supplemented with 10% FBS. HSC-2 oral cavity human squamous carcinoma cells were obtained from Health Science Research Resources Bank (Japan). HK-1, a previously characterized nasopharyngeal squamous carcinoma cells is a gift by Prof. Wong Y.C. from the University of Hong Kong. Both cell lines were grown in MEM medium supplemented with 10% FBS. For cell viability assay, cells at 4000 cells/well in 80 µl of medium were inoculated in 96-well plates and were allowed to adhere overnight. Cells were then treated with each compound at concentrations ranging from 0.001–10 µM giving the final volume of 100 µl in each well. At the end of incubation period, 15 µl of 5.0 mg/ml MTT in phosphate buffered saline (PBS) was added and incubated for 4 h. Medium and excessive MTT were aspirated and the resulting formazan was solubilized with 100 µl of dimethyl sulfoxide. Absorbance was read at 570 nm with SpectraMax M4 microplate spectrophotometer (Molecular Devices, CA).
(§2) The in vitro antitumor activity of rosamines was assessed using a 48 h endpoint cell viability methylthiazolyldiphenyl-tetrazolium bromide (MTT) assay against a panel of solid human tumor cell lines including breast carcinoma (MCF-7), colon carcinoma (HCT-116), oral squamous cell carcinoma (HSC-2) and nasopharyngeal carcinoma (HK-1). […] Within the halide series, cytotoxicities increase in the following order 4>3>[…] (Cl>Br>I), although not statistically significant (P>0.05).
In general terms: Tetrazolium assays rely on reduction of a dye to a coloured formazan, in cell work by metabolically active cells.

Series [1] deals with HK-1 nasopharyngeal squamous carcinoma cells. Briefly: MTT cell viability assay, 48 h. It is filed as cell-based. As to conditions: Homo sapiens, 48 h post-treatment, mean ± SD. The protocol:
as §1, §2

For series [2], the system named is HSC-2 oral cavity human squamous carcinoma cells. Briefly: MTT cell viability assay, 48 h. Particulars: 48 h post-treatment, mean ± SD. It is filed as cell-based. As to the method:
as §1, §2

The test system of the next series is MCF-7 breast carcinoma. Briefly: MTT cell viability assay, 48 h. Format: cell-based. As to conditions: Homo sapiens, MCF7, 48 h post-treatment, mean ± SD. As to the method:
as §1, §2

For series [3], the system named is panel of solid human tumor cell lines (MCF-7, HCT-116, HSC-2, HK-1). Briefly: MTT cell viability assay, panel of cancer cell lines. As to conditions: mean over MCF-7, HCT-116, HSC-2, HK-1. Format: cell-based. The protocol:
as §1, §2

A further series deals with Complex I. Briefly: Immunocapture ELISA microplate enzyme activity assay. It is filed as biochemical. As to conditions: mouse liver mitochondria extract; 0.01–10 µM.
The target in the next series is Complex II (Mus musculus, UniProt Q8K2B3+Q9CQA3+Q9CXV1+Q9CZB0). Described as above. As to conditions: mouse liver mitochondria extract; 0.01–10 µM. It is filed as biochemical.
Complex II, sequence (Q8K2B3 43-664): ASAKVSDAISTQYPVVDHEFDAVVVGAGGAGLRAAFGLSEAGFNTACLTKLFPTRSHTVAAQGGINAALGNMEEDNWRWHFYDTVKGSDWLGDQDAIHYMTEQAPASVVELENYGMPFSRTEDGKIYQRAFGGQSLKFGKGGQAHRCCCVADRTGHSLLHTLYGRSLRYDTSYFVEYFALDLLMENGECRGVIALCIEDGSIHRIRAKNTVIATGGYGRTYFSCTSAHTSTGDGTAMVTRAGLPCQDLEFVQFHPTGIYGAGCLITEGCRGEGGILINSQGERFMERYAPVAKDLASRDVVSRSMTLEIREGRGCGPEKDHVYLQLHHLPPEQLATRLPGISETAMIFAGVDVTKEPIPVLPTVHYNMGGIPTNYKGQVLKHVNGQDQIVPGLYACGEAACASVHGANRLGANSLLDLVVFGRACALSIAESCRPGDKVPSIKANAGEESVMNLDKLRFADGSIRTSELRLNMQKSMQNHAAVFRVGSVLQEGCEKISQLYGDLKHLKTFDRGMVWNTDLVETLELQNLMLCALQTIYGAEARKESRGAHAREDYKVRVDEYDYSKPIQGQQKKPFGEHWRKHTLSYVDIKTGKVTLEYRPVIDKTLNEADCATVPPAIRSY
Complex II, sequence (Q9CQA3 31-282): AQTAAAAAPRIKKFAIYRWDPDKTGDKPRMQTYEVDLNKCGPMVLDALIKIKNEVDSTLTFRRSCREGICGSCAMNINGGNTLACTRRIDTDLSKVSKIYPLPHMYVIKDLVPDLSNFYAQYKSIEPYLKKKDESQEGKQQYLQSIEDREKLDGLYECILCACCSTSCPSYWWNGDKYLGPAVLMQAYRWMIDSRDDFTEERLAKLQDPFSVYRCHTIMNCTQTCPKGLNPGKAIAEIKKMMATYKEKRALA
Complex II, sequence (Q9CZB0 30-169): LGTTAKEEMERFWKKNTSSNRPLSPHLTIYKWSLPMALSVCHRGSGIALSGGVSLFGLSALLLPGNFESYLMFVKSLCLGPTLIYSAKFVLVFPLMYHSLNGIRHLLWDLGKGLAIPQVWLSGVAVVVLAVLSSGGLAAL
Complex II, sequence (Q9CXV1 57-159): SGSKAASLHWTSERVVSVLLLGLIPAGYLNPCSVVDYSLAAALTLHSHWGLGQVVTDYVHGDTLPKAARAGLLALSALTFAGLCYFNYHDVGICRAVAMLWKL
In series [4] the test system is panel of solid human tumor cell lines (MCF-7, HCT-116, HSC-2, HK-1). Details: method as in PMID 19387338. Particulars: anticancer activity in cellular assays; previous study; cited from earlier work.
Another series concerns the target Complex IV (Mus musculus, UniProt P00397+P00405+P00416). Briefly: Immunocapture ELISA microplate enzyme activity assay. Particulars: read-out: IC50 Complex IV activity; mouse liver mitochondria extract; 0.01–10 µM.
Another series addresses ATP synthase (Mus musculus, UniProt P56480+Q03265). The series is described as above. Particulars: read-out: IC50 ATP synthase activity; mouse liver mitochondria extract; 0.01–10 µM.
In series [5] the test system is NCI-60 human tumor cell lines. Briefly: NCI-60 screen, sulforhodamine B, whole panel. Format: cell-based. As to conditions: overall value for the NCI-60 cell lines screen. The protocol: NCI-60 cell panel screening was performed by the NCI/National Institutes of Health developmental therapeutics program (Bethesda, US). This platform allows the determination of growth inhibitory profiles of test compounds on 60 different human cancer cell lines, representing leukemia, melanoma and cancers of the lung, colon, central nervous system, ovary, breast, prostate, and renal subpanel. Sulforhodamine B assay was used to assess the cytotoxicity of test agents in a panel of 60 cell lines. Briefly, the human tumor cell lines of the cancer screening panel were grown in RPMI 1640 medium containing 5% FBS and 2 mM L-glutamine. For a typical screening experiment, cells were inoculated into 96 well microtiter plates in 100 µl at plating densities depending on the doubling time of individual cell lines. After cell inoculation, the microtiter plates are incubated at 37°C, 5% CO2 and 100% relative humidity for 24 h. Following incubation, aliquots of 100 µl of compound at different dilutions were added to the appropriate microtiter wells and were further incubated for 48 h. At the assay end-point, cells were fixed with trichloroacetic acid followed by Sulforhodamine B staining for cellular protein content. Sulforhodamine B absorbance was read at a wavelength of 515 nm as a measurement of cell density.

The nature of series [6]: Solubility in aqueous media for treatment stock. Format: physicochemical. Particulars: reconstitution of treatment stock at 10 mM. The protocol:
Compounds 3, 4 and 6 were synthesized to test if meso-replacement with 4-bromobenzene 3, 4-chlorobenzene 4 or 2-furyl 6 groups would affect the anticancer activity. In addition, the 4-iodobenzene 7 or 2-thiofuran meso substituents 8 and unsymmetrical piperidine/[…] amine substituents were synthesized and investigated. Rosamines 1–4 and 7 were not appreciably water-soluble so they were reconstituted in DMSO at 10 mM as treatment stock.

Procedure for ATP synthase: (§3) Functional mitochondria were isolated from mouse liver by differential centrifugation method [14]. Briefly, a mouse (∼30 g) was starved overnight before sacrificed by cervical dislocation. The liver was harvested promptly and rinsed with ice-cold mitochondria isolation buffer (10 mM Tris-MOPS, 1 mM EGTA/Tris, 0.2 M sucrose, pH 7.4) until blood-free. The liver was then cut into small pieces in a beaker using scissors while keeping in an ice-bath. The buffer was replaced with 5 ml of fresh isolation buffer and the liver was homogenized with a Polytron probe (Ultra-Turrax T8, Ika-Werke, Germany) until smooth. The homogenate was centrifuged at 1000 g for 15 min at 4°C. The pellet was discarded and the supernatant was centrifuged at 12000 g for 15 min at 4°C to pellet the mitochondria. The mitochondria were washed twice by resuspending in 4 volumes of isolation buffer containing 1× protease cocktail inhibitor. The concentration of the mitochondrial protein was determined using the Bradford (Biorad protein assay) method. […]
(§4) In general, plate pre-coated with appropriate immunocapture antibody was incubated with mitochondria extract at recommended concentration to allow immobilization of their respective complexes. Complexes activity was measured by addition of substrates solution mix provided by the kit and compound was added at concentration ranging from 0.01–10 µM in triplicate. […]
Procedure for Complex IV: as §3, §4

As to `N#CC(C#N)=NNc1cccc(Cl)c1` [CCCP, Carbonyl cyanide 3-chlorophenylhydrazone, reference compound], in the series with HSC-2 cells (5 µM for 5 min, positive control), the “cell population with loss of membrane potential” value was found to be 70%.
Take `c1ccc(-c2c3ccc(=[N+]4CCCCC4)cc-3oc3cc(N4CCCCC4)ccc23)cc1` [Rosamine 1]: the IC50 – broadly, the concentration that gives 50% inhibition – with HCT-116 colon carcinoma is 600 ± 410 nM; in [1], 610 ± 70 nM; in [2], 90 nM; in the series on MCF-7 breast carcinoma, 1200 ± 700 nM; in series [3] it was 630 nM.
With `Ic1ccc(-c2c3ccc(=[N+]4CCCCC4)cc-3oc3cc(N4CCCCC4)ccc23)cc1` [Rosamine 2], the IC50 in the series on HCT-116 colon carcinoma was 390 ± 70 nM; in series [1] it was 290 ± 30 nM; in [2], 350 ± 50 nM; in the series on MCF-7 breast carcinoma, 590 ± 120 nM; in [3] it was 410 nM; against Complex I, more than 10 µM. Besides, the IC50 was more than 10 µM on Complex IV and 3.9 ± 0.3 µM at ATP synthase. The “cell population with mitochondrial transmembrane potential loss” value is 19% in the series with HSC-2 cells (8 h) and 9% in the series with HSC-2 cells (within 1 h after treatment). For the same compound, at Complex II, the “IC50 Complex II activity” value is given as “did not reach 50% up to maximum concentrations studied”. The “fold more active than phenyl substituted compound 1” value in series [4] is 5 fold.
On to `Brc1ccc(-c2c3ccc(=[N+]4CCCCC4)cc-3oc3cc(N4CCCCC4)ccc23)cc1` [Rosamine 3, 4-Bromobenzene Rosamine], for which the IC50 was 300 ± 80 nM in the series on HCT-116 colon carcinoma; 340 nM in series [1]; 190 ± 110 nM in series [2]; 290 ± 40 nM in the series with MCF-7 breast carcinoma; 280 nM in [3].
With `Clc1ccc(-c2c3ccc(=[N+]4CCCCC4)cc-3oc3cc(N4CCCCC4)ccc23)cc1` [Rosamine 4, 4-Chlorobenzene Rosamine], the IC50 in the series on HCT-116 colon carcinoma is 220 ± 140 nM; in [1] it was 250 ± 10 nM; in [2] it was 90 ± 10 nM; with MCF-7 breast carcinoma, 150 ± 40 nM; in series [3], 180 nM. In addition, the GI50 (commonly the concentration that inhibits growth by half) in series [5] (Homo sapiens) was determined as 100 nM. The same compound had a Log10GI50 in series [5] of −7.
For the compound `c1coc(-c2c3ccc(=[N+]4CCCCC4)cc-3oc3cc(N4CCCCC4)ccc23)c1` [Rosamine 6, Furan Rosamine], the IC50 in the series on HCT-116 colon carcinoma was 100 ± 30 nM; in series [1], 310 ± 80 nM; in [2] it was 90 nM; in the series on MCF-7 breast carcinoma it was 310 ± 140 nM; in [3], 200 nM. Also, the water solubility result in series [6] is “readily solubilized in aqueous media”.
Consider `Ic1ccc(-c2c3ccc(=[N+]4CCOCC4)cc-3oc3cc(N4CCCCC4)ccc23)cc1` [Rosamine 7, Unsymmetrical 4-Iodophenyl Rosamine], for which the IC50 turned out to be 240 ± 70 nM in the series on HCT-116 colon carcinoma; 440 ± 10 nM in series [1]; 220 ± 100 nM in [2]; 260 ± 70 nM in the series on MCF-7 breast carcinoma; 290 nM in series [3].
Turning to `c1csc(-c2c3ccc(=[N+]4CCOCC4)cc-3oc3cc(N4CCCCC4)ccc23)c1` [Rosamine 8, Unsymmetrical Thiofuryl Rosamine], the IC50 in the series with HCT-116 colon carcinoma was 70 ± 20 nM; in series [1], 530 nM; in series [2], 220 ± 110 nM; with MCF-7 breast carcinoma it was 170 ± 100 nM; in series [3] it was 250 nM. Moreover, the water solubility entry in series [6] was “readily solubilized in aqueous media”.

The values above are taken from publication PMC3951181, “Rosamines Targeting the Cancer Oxidative Phosphorylation Pathway” (PLoS ONE, 2014).
